Source: article PMC9055250, “Design, synthesis, and biological evaluation of new 6,N^2-diaryl-1,3,5-triazine-2,4-diamines as anticancer agents selectively targeting triple negative breast cancer cells” (RSC Advances, 2020)
Like-named read-outs stand apart in the source and are kept apart here.

Assays:
[1] = system: MCF-10A human epithelial breast cell line; experiment: MTT in vitro cytotoxicity assay, MCF-10A; format: cell-based; conditions: 72 h, read-out: GI50 ± SD MCF-10A
Description: (§1) The synthesized compounds were tested against three breast tumor cell lines (MDA-MB231, SKBR-3 and MCF-7) and epithelial breast cell line (MCF-10A) by the MTT colorimetric assay.[29,30] All cells were obtained from the American Type Culture Collection. The cancerous cell lines were grown in Dulbecco's modified eagle medium (DMEM) supplemented with 10% fetal bovine serum (FBS) and 1% pen-strep antibiotic. The MCF-10A human epithelial breast cell line was grown in the complete mammary epithelial growth medium containing horse serum 5%, epithelial growth factor 20 ng mL^−1, hydrocortisone […], cholera toxin 100 ng mL^−1, insulin 10 μg mL^−1, and pen-step antibiotic.[31] For the cytotoxic assay, 20 to 75 × 10^3 cells per mL (based on the doubling time for each cell line) were seeded in 96-well plates and the plates were incubated overnight in a humidified air atmosphere at 37 °C in 5% CO2 incubator.
(§2) The cells were then treated with compounds at different concentrations. After 72 h of incubation, the MTT (0.5 mg mL^−1) was added to wells, followed by 4 h of incubation. The culture medium was then removed and DMSO (100 μL per well) was added and the absorbance values were measured at 570 nm using the multi-well Tecan NanoQuant, Infinite m200 Pro plate reader. Growth inhibitory values (GI50) were calculated using GraphPad Prism 7 (GraphPad Software, San Diego, USA) by nonlinear regression analysis. Three independent experiments were carried out and the data was expressed in mean ± standard deviation (SD). The concentration–response curves used for the GI50 calculation are available in ESI. ^†

[2] = system: MDA-MB231 breast cancer cells; experiment: MTT in vitro cytotoxicity assay, MDA-MB231; format: cell-based; conditions: Homo sapiens, MDA-MB-231; for viability at 10 µM: read-out: Cell viability (%) MDA-MB231
Description: as §1, §2

[3] = system: MCF-7 breast cancer cells; experiment: MTT in vitro cytotoxicity assay, MCF-7; format: cell-based; conditions: Homo sapiens; for viability at 10 µM: MCF7, 10 μM, 72 h, read-out: Cell viability (%) MCF-7; for GI50: MCF7, 72 h, read-out: GI50 ± SD MCF-7
Description: as §1, §2

[4] = system: SKBR-3 breast cancer cells; experiment: MTT in vitro cytotoxicity assay, SKBR-3; format: cell-based; conditions: Homo sapiens; for viability at 10 µM: SK-BR-3, 10 μM, 72 h, read-out: Cell viability (%) SKBR-3; for GI50: SK-BR-3, 72 h, read-out: GI50 ± SD SKBR-3
Description: as §1, §2

[5] = 72 h, MTT, read-out: GI50 ± SD MDA-MB231
[6] = MDA-MB231, calculated from GI50, read-out: Experimental pGI50 (converted)

SMILES	GI50 [1] [µM]	viability at 10 µM ([2]; 72 h, MTT) [%]	GI50 [2, 5] [µM]	GI50 [2, 6] [µM]	viability at 10 µM [3] [%]	GI50 [3] [µM]	viability at 10 µM [4] [%]	GI50 [4] [µM]	melting point [°C]
COc1ccccc1Nc1nc(N)nc(-c2cccc(F)c2)n1 [Compound 1, 6-(3-Fluorophenyl)-N^2-(2-methoxyphenyl)-1,3,5-triazine-2,4-diamine]	> 20	49	17.3 ± 0.6	17.4	88	> 20	84	> 20	140 to 142
Cc1ccc(Nc2nc(N)nc(-c3ccc(Cl)cc3)n2)cc1 [Compound 2, 6-(4-Chlorophenyl)-N^2-(4-methylphenyl)-1,3,5-triazine-2,4-diamine]	> 20	29	13.8 ± 1.9	13.8	100	> 20	85	> 20	179 to 181
Nc1nc(Nc2ccccc2Cl)nc(-c2ccc(C(F)(F)F)cc2)n1 [Compound 3, N ^2-(2-Chlorophenyl)-6-(4-(trifluoromethyl)phenyl)-1,3,5-triazine-2,4-diamine]	> 20	49	13.7 ± 0.6	13.8	96	> 20	83	17.7 ± 1.4	165 to 167
Nc1nc(Nc2ccc(Cl)cc2)nc(-c2ccc(OC(F)(F)F)cc2)n1 [Compound 4, N ^2-(4-Chlorophenyl)-6-(4-(trifluoromethoxy)phenyl)-1,3,5-triazine-2,4-diamine]	> 20	34	16.7 ± 1.2	16.6	95	> 20	86	> 20	201 to 203
CN(C)c1ccc(-c2nc(N)nc(Nc3ccccc3Cl)n2)cc1 [Compound 5, N ^2-(2-Chlorophenyl)-6-(4-(dimethylamino)phenyl)-1,3,5-triazine-2,4-diamine]	> 20	28	0.1 ± 0.001	0.1	86	> 20	55	0.4 ± 0.04	191 to 193
Cc1ccc(-c2nc(N)nc(Nc3ccccc3Cl)n2)cc1 [Compound 6, N ^2-(2-Chlorophenyl)-6-(4-methylphenyl)-1,3,5-triazine-2,4-diamine]	> 20	36	3.8 ± 0.4	3.8	51	10.7 ± 1	80	> 20	146 to 148
Cc1ccc(-c2nc(N)nc(Nc3ccc(Cl)cc3)n2)cc1 [Compound 7, N ^2-(4-Chlorophenyl)-6-(4-methylphenyl)-1,3,5-triazine-2,4-diamine]	> 20	51	9.6 ± 0.2	9.55	95	> 20	76	> 20	202 to 204
COc1ccc(-c2nc(N)nc(Nc3ccccc3)n2)cc1 [Compound 8, 6-(4-Methoxyphenyl)-N^2-phenyl-1,3,5-triazine-2,4-diamine]	> 20	28	8.4 ± 0.3	8.32	85	14.2 ± 1.7	67	19.6 ± 0.9	190 to 192
COc1ccc(-c2nc(N)nc(Nc3ccc(C)cc3)n2)cc1 [Compound 9, 6-(4-Methoxyphenyl)-N^2-(4-methylphenyl)-1,3,5-triazine-2,4-diamine]	> 20	32	6.1 ± 0.6	6.17	99	> 20	89	> 20	186 to 188
COc1cc(-c2nc(N)nc(Nc3ccccc3)n2)cc(OC)c1OC [Compound 10, N ^2-Phenyl-6-(3,4,5-trimethoxyphenyl)-1,3,5-triazine-2,4-diamine]	> 20	14	9.7 ± 0.6	9.77	62	> 20	37	17.2 ± 0.4	111 to 113
COc1cc(-c2nc(N)nc(Nc3ccccc3F)n2)cc(OC)c1OC [Compound 11, N ^2-(2-Fluorophenyl)-6-(3,4,5-trimethoxyphenyl)-1,3,5-triazine-2,4-diamine]	> 20	34	7.9 ± 0.5	7.94	98	> 20	73	> 20	177 to 179
COc1cc(-c2nc(N)nc(Nc3ccccc3Cl)n2)cc(OC)c1OC [Compound 12, N ^2-(2-Chlorophenyl)-6-(3,4,5-trimethoxyphenyl)-1,3,5-triazine-2,4-diamine]	> 20	42	11.3 ± 1.1	11.2	100	> 20	80	> 20	176 to 178
COc1ccccc1Nc1nc(N)nc(-c2cc(OC)c(OC)c(OC)c2)n1 [Compound 13, N ^2-(2-Methoxyphenyl)-6-(3,4,5-trimethoxyphenyl)-1,3,5-triazine-2,4-diamine]	> 20	16	2.1 ± 0.2	2.04	100	> 20	57	14 ± 1.6	173 to 175
COc1cc(-c2nc(N)nc(Nc3cccc(Cl)c3)n2)cc(OC)c1OC [Compound 14, N ^2-(3-Chlorophenyl)-6-(3,4,5-trimethoxyphenyl)-1,3,5-triazine-2,4-diamine]	> 20	40	9.1 ± 1.1	9.12	96	> 20	58	16.7 ± 1.4	193 to 195
COc1cc(-c2nc(N)nc(Nc3cccc(C)c3)n2)cc(OC)c1OC [Compound 15, N ^2-(3-Methylphenyl)-6-(3,4,5-trimethoxyphenyl)-1,3,5-triazine-2,4-diamine]	> 20	14	2.2 ± 0.2	2.19	86	> 20	43	6 ± 0.1	192 to 194
CN(Cc1cnc2nc(N)nc(N)c2n1)c1ccc(C(=O)N[C@@H](CCC(=O)O)C(=O)O)cc1 [Methotrexate, reference compound]	–	–	0.01 ± 0.001	–	–	5.8 ± 0.5	–	–	–
Cc1cn(-c2cc(NC(=O)c3ccc(C)c(Nc4nccc(-c5cccnc5)n4)c3)cc(C(F)(F)F)c2)cn1 [Nilotinib, reference compound]	–	–	0.04 ± 0.001	–	–	–	–	9.6 ± 0.5	–
